From patent US12280114B2, “Extraction of plant source “medicinal soup” and manual preparation of “herbal medicine” and related products” (BEIJING BAISHIHEKANG PHARMACEUTICAL TECHNOLOGY (BSJPHARMA) …, priority 2018, dated 2025)

Legend:
A549 cells [1] = assay: Confocal fluorescence microscopy of green fluorescent protein delivered by lipid into A549 cells; assay type: cell-based, human; conditions: reverse evaporation method; 6 hours
Experimental: Experimental method: The bencaosome was prepared by reverse evaporation method. 0.2 nmol green fluorescent protein dissolved in 20 μl water was added to 100 μl ether solutions containing 0 μg, 0.25 μg, 0.75 μg lipid respectively. After fully mixing, sonication was conducted for 3 min. After evaporated at 60° C. to remove organic solvent, the bencaosome solution was obtained by hydrating with 100 μL opti-MEM. Then the bencaosome was added to A549 cells and co-incubated for 6 hours. The samples were collected and tested. After washing three times with PBS, the samples were fixed with 4% paraformaldehyde. After washing three times with PBS, the samples were stained with Alexa Fluor® 488 phalloidin for 30 min. After washing three times with PBS, the samples were stained with Dapi for 5 min, then washed with PBS and sealed for observation.

A549 cells [2] = assay: Flow cytometry of green fluorescent protein delivered by lipid into A549 cells; assay type: cell-based, human; conditions: 10 μg/mL lipid; reverse evaporation method; 6 hours
Experimental: (§1) Experimental method: The bencaosome was prepared by reverse evaporation of ether. 0.2 nmol green fluorescent protein dissolved in 20 μl water was added to 100 μl ether solutions containing 0 μg, 1 μg, 3 μg lipid respectively. After fully mixing, sonication was conducted for 3 min. After evaporation at 60° C. to remove organic solvent, the bencaosome solution was obtained by hydrating with 100 μL opti-MEM. Then the bencaosome was added to A549 cells and co-incubated for 6 hours. The samples were collected and tested. After washing three times with PBS, the samples were digested with trypsin for three minutes. The trypsin was removed, and then the samples were washed with PBS and blown off. Accuri® C6 instrument was used to measure.
as §1, with “method.” for “of ether.”, “The trypsin was removed, and then the samples were washed with PBS and blown off. Accuri® C6 instrument was used to measure.” left out

[3] = In vivo delivery of small RNA into mouse blood, stomach, small intestine and liver via gavage (RT-qPCR); conditions: Example 11; 10 μL single lipid + sRNA 1 nmol each, heating method; 12 hours
Experimental: [Experimental method] 6-8 weeks old mice, 22-24 g, were raised in SPF room of the Animal Center of the Institute of Basic Medical Sciences of Chinese Academy of Medical Sciences. The mice were fasted for 12 hours before intragastric administration. The mice were randomly divided into 3 groups: (1) control group, 400 μl DEPC-treated water, intragastric administration; (2) free uptake group, small RNA (PGY-sRNA-26, PGY-sRNA-32 and PGY-sRNA-23), each small RNA 1 nmol/animal, dissolved in 400 μl DEPC-treated water, intragastric administration; (3) lipid No. 41 group: a mixture of small RNA (PGY-sRNA-26 and PGY-sRNA-32) and lipid No. 41 prepared by heating method was intragastrically administered, each small RNA 1 nmol/animal, lipid No. 41 10 μl/animal, dissolved in 400 μl DEPC-treated water. All tissue and organ samples were collected after 6 hours of intragastric administration. All small RNAs were single-stranded RNA modified by 3p-terminal 2-O-methylation.
After 12 hours, the sample was collected to detect the amount of entry. In Vivo Delivery Experiment of Lipid Nucleic Acid Mixture • 1. […] LightCycler 480 fluorescence quantitative PCR instrument was used, and the PCR reaction conditions were: 95° C., 5 min for pre-denaturation, followed by the PCR amplification cycle: (1) 95° C., 10 s; (2) 55° C., 10 s; (3) 72° C., 20 s; a total of 40 cycles; 40° C. for 10 s in the end to cool down. […]

A549 cells [4] = assay: Digital PCR (ddPCR) detection of nucleic acid delivery by lipid into A549 cells; assay type: cell-based, human; conditions: single lipid; boiling or reverse evaporation method
Experimental: Referring to the QX200 Droplet Reader and QuantaSoft Software manual for the protocols, the results were analyzed using QuantaSoft software.
2.2 Experimental method: total RNA was collected and extracted by TRIzol lysis buffer according to the above method, and reverse transcribed to cDNA using High capacity cRNA Reverse Transcription Kit, and the cDNA from different groups was subjected to digital PCR reaction.
2.2 Experimental method: Total RNA was collected and extracted by TRIzol lysis buffer according to the above method, and reverse transcribed to cDNA using TaqMan™ MicroRNA Reverse Transcription KitHigh, and the cDNA from different groups was subjected to digital PCR reaction.
2.2 Experimental method: Total RNA was collected and extracted by TRIzol lysis buffer according to the above method, and reversed to cDNA using High capacity CRNA Reverse Transcription Kit, and the cDNA from different groups was subjected to digital PCR reaction.

A549 cells [5] = assay: Confocal fluorescence microscopy of lipid-delivered nucleic acid in A549 cells; assay type: cell-based, human; conditions: boiling method; 6 hours
Experimental: (§2) […] Then the mixture was dropped into A549 cells, and after 6 hours of co-incubation, the samples were washed three times with PBS, fixed with 4% paraformaldehyde, washed three times with PBS, stained with Alexa Fluor® 488 phalloidin for 30 min, washed 3 times with PBS, and stained with DAPI for 5 min, washed with PBS, and then sealed.
as §2, with “Then,” for “Then”, “PBS washed,” for “washed with PBS,”

A549 cells [6] = assay: RT-qPCR detection of nucleic acid delivered by lipid into A549 cells; assay type: cell-based, human; conditions: HJT-sRNA-m7 double-stranded RNA, reverse evaporation method
fibronectin and α-SMA = assay: Fibronectin/α-SMA protein expression in TGF-β1-stimulated MRC-5 cells after small RNA delivered by lipid or bencaosome (Western blot); assay type: cell-based, human; conditions: Examples 5 and 8; nucleic acid 400 nM; TGF-β1 3 ng/mL, 72 hours

CCCCCCCC/C=C\CCCCCCCCCCCC(=O)O[C@H](COC(=O)CCCCCCCCCCCCCCC)COP(=O)(O)OCCN [lipid No. 40, PE(16:0/22:1)]
entry of green fluorescent protein into A549 cells (confocal microscope) (A549 cells [1]): could effectively deliver protein into A549 cells | efficiency to deliver green fluorescent protein into A549 cells (A549 cells [2]): 7.2% | delivery of sRNA single-stranded nucleic acid into mouse blood via oral administration [3]: the delivery effect was better than POPC and Lipofectamine RNAiMAX | delivery of HJT-sRNA-m7 dsRNA into A549 cells (ddPCR) (A549 cells [4]): could effectively deliver HJT-sRNA-m7 dsRNA into A549 cells | entry of PGY-sRNA-6-Cy3 into A549 cells (confocal microscopy) (A549 cells [5]): could effectively deliver single-stranded RNA into A549 cells | delivery effect of lipid compared with RNAiMAX (RT-qPCR) (A549 cells [6]): ½ | inhibition by HJT small RNA at protein level in MRC-5 cells (Western blot) (fibronectin and α-SMA): mediated anti-fibrotic double-stranded RNA HJT-sRNA-m7 entry into MRC-5 cells to down-regulate fibronectin protein expression
